Tested on: 521955-158-R2-J5-PDC complex spheroids, viability
Assay: Anticancer human tumor 521955-158-R2-J5-PDC patient-derived pancreatic carcinoma cell line growth inhibition [RAS]
Conditions: for IC50: curve of first compound; for viability, T/C: stronger effect = lower value
Summary of the method: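 Agents were tested in combination matrices in half-log decrements from a top concentration at or near clinical Cmax (10 microM if undetermined). Targets were multi-cell spheroids of tumour lines plus HUVEC and MSC stromal cells.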

[1] = second compound 0.000949 µM, first compound 0.0316 µM
[2] = second compound 0.000949 µM, first compound 0.1 µM
[3] = second compound 0.000949 µM, first compound 0.316 µM
[4] = second compound 0.000949 µM, first compound 1 µM
[5] = second compound 0.000949 µM, first compound 3.16 µM
[6] = second compound 0.000949 µM, first compound 10 µM
[7] = second compound 0.003 µM, first compound 0.0316 µM
[8] = second compound 0.003 µM, first compound 0.1 µM
[9] = second compound 0.003 µM, first compound 0.316 µM
[10] = second compound 0.003 µM, first compound 1 µM
[11] = second compound 0.003 µM, first compound 3.16 µM
[12] = second compound 0.003 µM, first compound 10 µM
[13] = second compound 0.00949 µM, first compound 0.0316 µM
[14] = second compound 0.00949 µM, first compound 0.1 µM
[15] = second compound 0.00949 µM, first compound 0.316 µM
[16] = second compound 0.00949 µM, first compound 1 µM
[17] = second compound 0.00949 µM, first compound 3.16 µM
[18] = second compound 0.00949 µM, first compound 10 µM
[19] = second compound 0.03 µM, first compound 0.0316 µM
[20] = second compound 0.03 µM, first compound 0.1 µM
[21] = second compound 0.03 µM, first compound 0.316 µM
[22] = second compound 0.03 µM, first compound 1 µM
[23] = second compound 0.03 µM, first compound 3.16 µM
[24] = second compound 0.03 µM, first compound 10 µM
[25] = second compound 0.0949 µM, first compound 0.0316 µM
[26] = second compound 0.0949 µM, first compound 0.1 µM
[27] = second compound 0.0949 µM, first compound 0.316 µM
[28] = second compound 0.0949 µM, first compound 1 µM
[29] = second compound 0.0949 µM, first compound 3.16 µM
[30] = second compound 0.0949 µM, first compound 10 µM
[31] = second compound 0.3 µM, first compound 0.0316 µM
[32] = second compound 0.3 µM, first compound 0.1 µM
[33] = second compound 0.3 µM, first compound 0.316 µM
[34] = second compound 0.3 µM, first compound 1 µM
[35] = second compound 0.3 µM, first compound 3.16 µM
[36] = second compound 0.3 µM, first compound 10 µM
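Note: compound exposure lasted seven days before the viability read.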
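Throughout, for viability, T/C: spheroids also contain HUVEC endothelial cells and mesenchymal stem cells as stroma.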

`Cc1nc(N2CCC3(CC2)COC(C)C3N)c(CO)nc1Sc1ccnc(N)c1Cl` (stereo unspecified) + CCn1c(-c2cc(N3CCN(C)CC3)cnc2C(C)OC)c2c3cc(ccc31)-c1csc(n1)CC(NC(=O)C1CC1C)C(=O)N1CCCC(N1)C(=O)OCC(C)(C)C2 gave an IC50 (second compound 0.000949 µM) of less than 31.6 nM, an IC50 (second compound 0.003 µM) of less than 31.6 nM and an IC50 (second compound 0.00949 µM) of less than 31.6 nM. The IC50 (second compound 0.03 µM) was less than 31.6 nM, the IC50 (second compound 0.0949 µM) was less than 31.6 nM and the IC50 (second compound 0.3 µM) was less than 31.6 nM. For the same molecule, the viability, T/C [1] was 39.5%, the viability, T/C [2] was 31% and the viability, T/C [3] was 32.7%. For the same molecule, the viability, T/C [4] was 39.2%, the viability, T/C [5] was 36.4% and the viability, T/C [6] was 33.3%. The viability, T/C [7] was 36.2%, the viability, T/C [8] was 40.7% and the viability, T/C [9] was 35.3%. It also gave a viability, T/C [10] of 31.3%, a viability, T/C [11] of 23.8% and a viability, T/C [12] of 20.9%. For the same molecule, the viability, T/C [13] was 27.4%, the viability, T/C [14] was 32.1% and the viability, T/C [15] was 25%. The viability, T/C [16] was 18.3%, the viability, T/C [17] was 18.7% and the viability, T/C [18] was 10.8%. The viability, T/C [19] was 15.9%, the viability, T/C [20] was 18.1% and the viability, T/C [21] was 12.8%. The viability, T/C [22] was 13.9%, the viability, T/C [23] was 11.8% and the viability, T/C [24] was 11.7%. It also gave a viability, T/C [25] of 14.3%, a viability, T/C [26] of 11% and a viability, T/C [27] of 15.1%. It also gave a viability, T/C [28] of 7.6%, a viability, T/C [29] of 11.3% and a viability, T/C [30] of 10.7%. It also gave a viability, T/C [31] of 9.07%, a viability, T/C [32] of 8.16% and a viability, T/C [33] of 8.08%. For the same molecule, the viability, T/C [34] was 6.34%, the viability, T/C [35] was 7.5% and the viability, T/C [36] was 9.18%.
Work on `NC1c2ccccc2OC12CCN(c1cnc3c(N4CCCc5ncccc54)n[nH]c3n1)CC2` (stereo unspecified) + CCn1c(-c2cc(N3CCN(C)CC3)cnc2C(C)OC)c2c3cc(ccc31)-c1csc(n1)CC(NC(=O)C1CC1C)C(=O)N1CCCC(N1)C(=O)OCC(C)(C)C2 yielded an IC50 (second compound 0.000949 µM) of less than 31.6 nM, an IC50 (second compound 0.003 µM) of less than 31.6 nM and an IC50 (second compound 0.00949 µM) of less than 31.6 nM. It also gave an IC50 (second compound 0.03 µM) of less than 31.6 nM, an IC50 (second compound 0.0949 µM) of less than 31.6 nM and an IC50 (second compound 0.3 µM) of less than 31.6 nM. It also gave a viability, T/C [1] of 36.8%, a viability, T/C [2] of 33.9% and a viability, T/C [3] of 36.1%. It also gave a viability, T/C [4] of 20.8%, a viability, T/C [5] of 18.5% and a viability, T/C [6] of 13.4%. The viability, T/C [7] was 35.4%, the viability, T/C [8] was 28.6% and the viability, T/C [9] was 21.4%. It also gave a viability, T/C [10] of 19.2%, a viability, T/C [11] of 13.3% and a viability, T/C [12] of 5.75%. For the same molecule, the viability, T/C [13] was 24.2%, the viability, T/C [14] was 16% and the viability, T/C [15] was 14.4%. The viability, T/C [16] was 11.2%, the viability, T/C [17] was 6.08% and the viability, T/C [18] was 3.95%. For the same molecule, the viability, T/C [19] was 10.4%, the viability, T/C [20] was 8.87% and the viability, T/C [21] was 10.9%. It also gave a viability, T/C [22] of 8.91%, a viability, T/C [23] of 7.26% and a viability, T/C [24] of 4.07%. It also gave a viability, T/C [25] of 11%, a viability, T/C [26] of 9.54% and a viability, T/C [27] of 11.1%. The viability, T/C [28] was 5.55%, the viability, T/C [29] was 8% and the viability, T/C [30] was 3.91%. The viability, T/C [31] was 10.1%, the viability, T/C [32] was 7.36% and the viability, T/C [33] was 9.18%. It also gave a viability, T/C [34] of 8.17%, a viability, T/C [35] of 9.16% and a viability, T/C [36] of 3.2%.
Work on `Nc1ccn(C2OC(CO)C(O)C2(F)F)c(=O)n1` (stereo unspecified) + CCn1c(-c2cc(N3CCN(C)CC3)cnc2C(C)OC)c2c3cc(ccc31)-c1csc(n1)CC(NC(=O)C1CC1C)C(=O)N1CCCC(N1)C(=O)OCC(C)(C)C2 yielded an IC50 (second compound 0.000949 µM) of less than 3.16 nM, an IC50 (second compound 0.003 µM) of less than 3.16 nM and an IC50 (second compound 0.00949 µM) of less than 3.16 nM. For the same molecule, the IC50 (second compound 0.03 µM) was less than 3.16 nM, the IC50 (second compound 0.0949 µM) was less than 3.16 nM and the IC50 (second compound 0.3 µM) was less than 3.16 nM. It also gave a viability, T/C (second compound 0.000949 µM, first compound 0.00316 µM) of 35.3%, a viability, T/C (second compound 0.000949 µM, first compound 0.01 µM) of 29% and a viability, T/C [1] of 30.2%. The viability, T/C [2] was 21%, the viability, T/C [3] was 22.9% and the viability, T/C [4] was 12%. For the same molecule, the viability, T/C (second compound 0.003 µM, first compound 0.00316 µM) was 39%, the viability, T/C (second compound 0.003 µM, first compound 0.01 µM) was 33.4% and the viability, T/C [7] was 36%. It also gave a viability, T/C [8] of 28%, a viability, T/C [9] of 20.5% and a viability, T/C [10] of 17.2%. The viability, T/C (second compound 0.00949 µM, first compound 0.00316 µM) was 32.2%, the viability, T/C (second compound 0.00949 µM, first compound 0.01 µM) was 28.8% and the viability, T/C [13] was 29.9%. The viability, T/C [14] was 21.4%, the viability, T/C [15] was 19.8% and the viability, T/C [16] was 20.6%. It also gave a viability, T/C (second compound 0.03 µM, first compound 0.00316 µM) of 22.5%, a viability, T/C (second compound 0.03 µM, first compound 0.01 µM) of 20.6% and a viability, T/C [19] of 18.3%. For the same molecule, the viability, T/C [20] was 19.4%, the viability, T/C [21] was 13.7% and the viability, T/C [22] was 12.7%. The viability, T/C (second compound 0.0949 µM, first compound 0.00316 µM) was 10.2%, the viability, T/C (second compound 0.0949 µM, first compound 0.01 µM) was 11.2% and the viability, T/C [25] was 13.3%. For the same molecule, the viability, T/C [26] was 12.4%, the viability, T/C [27] was 9.85% and the viability, T/C [28] was 7.8%. It also gave a viability, T/C (second compound 0.3 µM, first compound 0.00316 µM) of 13.4%, a viability, T/C (second compound 0.3 µM, first compound 0.01 µM) of 9.3% and a viability, T/C [31] of 11.2%. The viability, T/C [32] was 11.1%, the viability, T/C [33] was 9.17% and the viability, T/C [34] was 11.8%.

Source: PubChem BioAssay AID2060900 (Molecular Pharmacology Branch, DTP, NCI, 2025)
